Test [1] has as its system epidermal ceramide synthesis. As to the kind of experiment: Evaluation of the amount of epidermal ceramide synthesis in hairless mice. The class given is in vivo, hairless mouse (SKH1:hr/hr:BR). Particulars: for Relative amount of total ceramide synthesis (%) / Relative amount of ceramide III synthesis (%): relative to untreated mice; for Relative amount of ceramide III synthesis (%): 200 μl to dorsal skin once a day for one month, ceramide III = ceramides 1 and 2. As for the experimental part:
Test Compositions 1 to 5 were obtained by preparing 30% by weight aqueous ethanol solutions containing 0, 1.0, 3.0, 5.0 and 10.0% by weight, respectively, of N-acetyl-trans-4-hydroxy-L-proline. The pH values of the aqueous solutions were adjusted to 4.5 with sodium hydroxide.
Each of Test Compositions 1 to 5 was applied at 200 μl to the entire dorsal area as the tested region of each hairless mouse (SKH1:hr/hr:BR, male, 7 week old, available from Charles River Japan, Inc.) once a day for one month. The mice were used as four animals per each group.
Before starting of the application and one month after starting of the application, epidermal lipids were extracted from the entire dorsal area as the tested region of each mouse, and the activity of N-acetyl-trans-4-hydroxy-L-proline to synthesize ceramide was evaluated by measuring the ceramide content.
The epidermal lipids were obtained by extraction with 95% ethanol and further extracting the extract with hexane:methanol (2:3), followed by drying. The resulting epidermal lipids were dissolved in chloroform and separated by using silica gel thin layer chromatography in a manner similar to the method of Imokawa et al. [Journal of Investigative Dermatology, 96, 523 (1991)], and then the ceramide content was measured using a flying-spot scanning densitometer (manufactured by Shimadzu Corporation, CS-9000).
The ceramide content was calculated in accordance with the following equation, as the relative value to the change in the amount of ceramide synthesis in untreated mice.
Relative amount of ceramide synthesis (%)=[(A1×B2)/(A2×B1)]×100
A1: Ceramide content after application in tested mice
A2: Ceramide content before application in tested mice
B1: Ceramide content after application in untreated mice
B2: Ceramide content before application in untreated mice
Since it is known that the ceramides exist in several isomer forms, the calculation was carried out on each of the amount of total ceramide synthesis and those of syntheses of various ceramide isomers. As the standards, ceramide III (consisting of ceramides 1 and 2) and ceramide IV (consisting of ceramides 4 and 5) both manufactured by Sigma wer used. Here, total ceramide means the total of ceramides 1, 2, 4 and 5, and ceramide III means the total of ceramides 1 and 2. The ceramides 1, 2, 4 and 5 correspond to the compounds 1, 2, 4 and 5, respectively, described in FIG. 2 of Journal of Lipid Research, 24, 559 (1983).

In test [2] the test system is auricular edema in atopic dermatitis-induced model mice (Type I Allergy Model). As to the kind of experiment: Auricular edema inhibition in atopic dermatitis-induced model mice (type I allergy model, tick extract). The class given is in vivo, NC/Nga mouse. Particulars: for Relative auricular edema increase (%): 20 μl to both sides of auricle once a day from 7th day, measured on 28th day, mean ± SD, n=6. As to the method: Test Compositions 6 to 8 were obtained by preparing 30% by weight aqueous ethanol solutions containing 0, 1.0 and 3.0% by weight, respectively, of N-acetyl-trans-4-hydroxy-L-proline. The pH values of the aqueous solutions were adjusted to 4.5 with sodium hydroxide.
Atopic dermatitis using NC/Nga mice was carried out in a same manner similar to the method of Sasagawa et al. [16th Japanese Society of Disease Models (1999)]. Auricular edema was induced by intradermal injection of 20 μg of a tick (Dermatophagoides pteronyssinus) extract as the antigen into the auricle of NC/Nga mouse (male, 8 week old, available from Charles River Japan, Inc.), once a day at a predetermined time in the 1st day, 3rd day and every day from 7th days after starting of the test. Each of Test Compositions 6 to 8 was applied at 20 μl to both sides of the auricle as the tested region, 6 hours after administration of the tick extract, once a day from the 7th day after starting of the test. The mice were used as six animals per each group.
A thickness of the auricle was measured on the 28th day after starting of the test using a dial thickness gauge (G-1A, manufactured by PEACOCK), and the relative auricular edema increase (%) was calculated in accordance with the following equation.
(§1) Relative auricular edema increase (%)=[(A1×B2)/(A2×B1)]×100
(§2) A1: Thickness of auricle after passed days in tested mice
(§3) A2: Thickness of auricle at the time of starting of the test in tested mice
(§4) B1: Thickness of auricle after passed days in untreated mice
(§5) B2: Thickness of auricle at the time of starting of the test in untreated mice

Test [3] relates to auricular edema in atopic dermatitis-induced model mice (Type I and Type IV Allergy Models). Nature of the test: Auricular edema inhibition in atopic dermatitis-induced model mice (type I and type IV allergy models, DNCB). It counts as in vivo, NC/Nga mouse. Particulars: for Relative auricular edema increase (%): 3% by weight, 20 μl to both sides of auricle once a day, mean ± SD, n=6. As for the experimental part:
Test Compositions 9 and 10 were obtained by preparing 30% by weight ethanol solutions containing 0 and 3.0% by weight, respectively, of N-acetyl-trans-4-hydroxy-L-proline. The pH values of the aqueous solutions were adjusted to 4.5 with sodium hydroxide.
Atopic dermatitis using NC/Nga mice was carried out in a manner similar to the method of Fujii et al. [Fundamentals and Clinics (Kiso-to-Rinsho), 31(8), 2693 (1997)]. Auricular edema was induced by applying 20 μl of 1.5% dinitrochlorobenzene (DNCB) to both sides of the auricle of NC/Nga mouse (male, 8 week old, available from Charles River Japan, Inc.), once a day at a predetermined time in the 1st, 3rd and 7th days after starting of the test. Each of Test Compositions 9 and 10 was applied at 20 μl to both sides of the auricle as the tested region, 6 hours after the application of DNCB and once a day every day from the 1st day after starting of the test. The mice were used as six animals per each group.
Just before the application of the test compositions to the auricle on the 11th, 12th, 14th and 17th days after starting of the test, a thickness of the auricle was measured using a dial thickness gauge (G-1A, manufactured by PEACOCK), and the relative auricular edema increase (%) was calculated in accordance with the following equation.
as §1, §2, §3, §4, §5

Where [4] appears, read: concentration of 1 to 3% by weight, long period of continuous use.

As to `CC(=O)N1C[C@H](O)C[C@H]1C(=O)O` [N-acetyl-trans-4-hydroxy-L-proline], the “Relative amount of total ceramide synthesis (%)” value in test [1] (1% by weight in 30% aqueous ethanol pH 4.5, 200 μl to dorsal skin once a day for one month) was found to be 218.6%; in test [1] (3% by weight in 30% aqueous ethanol pH 4.5, 200 μl to dorsal skin once a day for one month), 170.6%. The “Relative amount of ceramide III synthesis (%)” value in test [1] (1% by weight) was 239.5%; in test [1] (3% by weight) it was 321.1%; in test [1] (5% by weight) it was 209.6%; in test [1] (10% by weight), 185.9%. For the same compound, in test [1] (setting [4]), the “total ceramide content in the epidermal stratum corneum” value is listed as “significant increase”. For the same compound, in test [1] (concentration of 1 to 10% by weight, long period of continuous use), the “ceramide III in the epidermal stratum corneum” value is reported as “significant increase”. Moreover, the “Relative auricular edema increase (%)” value was found to be 120.9 ± 3.5% in test [2] (1% by weight); 110.1 ± 4.4% in test [2] (3% by weight); 360.1 ± 64.2% in test [3] (11th day after starting of test); 399.7 ± 55.9% in test [3] (12th day after starting of test); 429.0 ± 72.3% in test [3] (14th day after starting of test); 312.1 ± 50.6% in test [3] (17th day after starting of test). Further, the “inhibition of auricular edema caused by the type I allergy model” value in test [2] (setting [4]) was “significantly inhibited”. Moreover, the “inhibition of auricular edema caused by the type I and type IV allergy models” value in test [3] (concentration of 3% by weight, long period of continuous use) is recorded as “significantly inhibited”.

(Values after patent US20030185864A1, “Preventives or remedies for atopic dermatitis” (priority 2000, published 2003).)
